Measurements as given in paper PMC12324462 (bioRxiv, 2025).

Biological target: CDK9 (Homo sapiens, UniProt P50750)
Assay: in vitro kinase assay
Format: biochemical

Sequence of CDK9 (P50750 whole entry): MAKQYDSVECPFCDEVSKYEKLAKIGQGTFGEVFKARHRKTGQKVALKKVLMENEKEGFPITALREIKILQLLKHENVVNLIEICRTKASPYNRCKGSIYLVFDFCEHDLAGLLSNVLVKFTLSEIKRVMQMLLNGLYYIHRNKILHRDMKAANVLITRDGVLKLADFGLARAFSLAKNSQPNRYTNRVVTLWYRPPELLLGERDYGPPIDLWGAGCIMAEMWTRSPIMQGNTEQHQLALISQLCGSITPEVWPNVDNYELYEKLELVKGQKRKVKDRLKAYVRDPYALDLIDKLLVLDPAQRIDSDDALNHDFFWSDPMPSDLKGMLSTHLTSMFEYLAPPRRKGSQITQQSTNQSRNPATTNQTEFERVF

Cc1cc(O)c(-c2ccc([C@@H](C)CN(C)C)cc2)c2c1[nH]c(=O)c1sccc12 [OTS964]
IC50: 0.65 µM
